# Earlier results, collected in patent publication US20060079683A1, “Arylthiobenzylpiperidine derivatives” (priority 2004, published 2006).
# What was measured:
# Settings in all cases: B. Borowsky, et al., Nature Medicine, 2002
# [1] = target: T1, MCH1 receptor (Cavia porcellus, UniProt H0VKT7)
# T1 construct: host or cells: living guinea pig, endogenous receptor
# [2] = target: T2, MCH1 receptor (Rattus norvegicus, UniProt P97639)
# T2 construct: host or cells: living rat, endogenous receptor
# [3] = target: T2, MCH1 receptor; remark: listed apart in the source
# T2 sequence (P97639 whole entry): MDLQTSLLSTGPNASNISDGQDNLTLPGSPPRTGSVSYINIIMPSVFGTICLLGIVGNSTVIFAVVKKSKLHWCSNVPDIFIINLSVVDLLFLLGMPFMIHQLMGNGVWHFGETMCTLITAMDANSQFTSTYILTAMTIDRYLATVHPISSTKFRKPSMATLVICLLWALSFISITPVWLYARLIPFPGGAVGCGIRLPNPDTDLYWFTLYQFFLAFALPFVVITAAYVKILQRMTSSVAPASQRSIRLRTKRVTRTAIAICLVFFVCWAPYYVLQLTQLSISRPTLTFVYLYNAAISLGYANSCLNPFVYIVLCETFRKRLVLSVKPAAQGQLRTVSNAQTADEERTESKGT
# T1 sequence (H0VKT7 1-355): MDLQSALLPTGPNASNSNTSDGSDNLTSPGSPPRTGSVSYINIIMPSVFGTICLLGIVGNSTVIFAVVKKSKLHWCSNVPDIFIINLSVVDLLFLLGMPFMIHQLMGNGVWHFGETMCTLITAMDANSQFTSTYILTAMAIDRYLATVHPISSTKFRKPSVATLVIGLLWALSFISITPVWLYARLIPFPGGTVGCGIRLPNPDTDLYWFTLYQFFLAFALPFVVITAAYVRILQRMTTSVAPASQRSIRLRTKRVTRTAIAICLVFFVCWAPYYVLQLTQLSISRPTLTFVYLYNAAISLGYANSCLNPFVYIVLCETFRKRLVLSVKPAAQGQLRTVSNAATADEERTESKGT
compound,measurement,setting,value
COCC1=C(C(=O)OC)[C@H](c2ccc(F)c(F)c2)N(C(=O)NCCCN2CCC(c3cccc(NC(C)=O)c3)CC2)C(=O)N1 [SNAP-7941],profile in behavioral model of depression and/or anxiety: guinea pig maternal-separation vocalization,[1],profile similar to clinically used anti-depressants and anxiolytics
same,profile in behavioral model of depression and/or anxiety: rat social interaction,[2],profile similar to clinically used anti-depressants and anxiolytics
same,profile in behavioral model of depression and/or anxiety: rat forced-swim,[3],profile similar to clinically used anti-depressants and anxiolytics
